The values below come from patent US9527832B2, “Substituted condensed pyrimidine compounds” (GRÜNENTHAL GMBH, priority 2013, dated 2016).

The target in this experiment is T1, human PDE4B1 (Homo sapiens, UniProt Q07343).
T1 construct: host or cells: Sf9 cells
Put plainly: cAMP HTRF assay to determine the activity of hPDE4B1. In kind it is biochemical. Particulars: for IC50: dose response measurements with eight concentrations, reported as ranges, read-out: IC50. The procedure:
cAMP HTRF® Assay to Determine the Activity of hPDE4B1
The inhibiting effect of the compounds on the enzyme activity of human PDE4B1 was measured by the quantification of 5′-adenosine monophosphate (5′-AMP), which is formed from 3′,5′-cyclic adenosine monophosphate (cAMP). Human recombinant enzyme, expressed in Sf9 cells, and the HTRF (homogeneous time-resolved fluorescence) detection method were used in the assay.
The test compound or water (control) was mixed with the human recombinant PDE4B1 enzyme (4.8 U) in a buffer consisting of 44.4 mM tris-HCl, 5.28 mM MgCl2, 2.64 mM DTT and 0.044% Tween 20 (pH 7.8). After adding the cAMP enzyme substrate (final concentration 40 nM), the mixture was incubated for 30 minutes at room temperature. Then a fluorescence acceptor (Dye2 marked with cAMP), a fluorescence donor (anti-cAMP antibody marked with a europium cryptate) and the non-specific phosphodiesterase inhibitor IBMX (3-isobutyl-1-methylxanthine; final concentration 1 mM) were added. After 60 minutes the fluorescence transfer, which correlates with the amount of remaining cAMP, was measured with a microplate reader (Rubystar, BMG) at λex=337 nm, λem=620 nm and λem=665 nm. The enzyme activity was calculated from the quotient formed from the measured signal at 665 nm and that at 620 nm. The result was expressed as the percentage inhibition of enzyme activity of the control (without PDE4 inhibitor). The enzyme was omitted for measurement of the basal control.
IC50 values (IC50=concentration causing a half-maximal inhibition of control specific activity) were derived from dose response measurements with eight different concentrations (n=2; N=1-2).
Literature: N. Saldou et al., Comparison of recombinant human PDE4 isoforms: interaction with substrate and inhibitors, Cell. Signal. Vol. 10, No. 6, 427-440, 1998

[1] abbreviates: Percentage inhibition of PDE4B at 1 μM test concentration.

T1 sequence (Q07343 whole entry): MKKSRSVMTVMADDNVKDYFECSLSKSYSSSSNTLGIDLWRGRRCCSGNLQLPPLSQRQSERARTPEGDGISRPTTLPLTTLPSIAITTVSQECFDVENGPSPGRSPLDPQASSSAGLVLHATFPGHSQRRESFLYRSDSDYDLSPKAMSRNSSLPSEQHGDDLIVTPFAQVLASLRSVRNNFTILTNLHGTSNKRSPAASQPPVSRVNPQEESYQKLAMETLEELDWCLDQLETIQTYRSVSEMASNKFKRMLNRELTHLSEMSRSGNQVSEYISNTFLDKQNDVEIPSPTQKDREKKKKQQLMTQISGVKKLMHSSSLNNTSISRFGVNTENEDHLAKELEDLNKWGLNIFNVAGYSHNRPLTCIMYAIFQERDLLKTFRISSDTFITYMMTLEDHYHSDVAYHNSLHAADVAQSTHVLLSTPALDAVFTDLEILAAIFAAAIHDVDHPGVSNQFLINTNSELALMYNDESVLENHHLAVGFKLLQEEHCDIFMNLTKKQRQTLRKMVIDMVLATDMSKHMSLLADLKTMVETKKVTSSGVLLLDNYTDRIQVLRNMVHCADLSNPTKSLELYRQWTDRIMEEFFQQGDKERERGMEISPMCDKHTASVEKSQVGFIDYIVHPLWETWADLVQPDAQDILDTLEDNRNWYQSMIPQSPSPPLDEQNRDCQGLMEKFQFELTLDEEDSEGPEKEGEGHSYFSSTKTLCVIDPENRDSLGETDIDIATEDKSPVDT

Consider `CN(C)C(=O)COc1ccc2c(c1)N(c1nc(-c3ccc(F)cc3)nc3c1C[S+]([O-])C3)CC2` (stereo not shown) [2-99, 2-[[1-[2-(4-Fluorophenyl)-6-oxo-5,7-dihydro-thieno[3,4-d]pyrimidin-4-yl]-2,3-dihydro-1H-indol-6-yl]oxy]-N,N-dimethyl-acetamide], for which the IC50 was below 100 nM. The inhibition at 1 µM under setting [1] amounted to 104%.

Consider `CN(C)C(=O)COc1ccc2c(c1)N(c1nc(-c3ccccc3F)nc3c1C[S+]([O-])C3)CC2` (stereo not shown) [2-100, 2-[[1-[2-(2-Fluorophenyl)-6-oxo-5,7-dihydro-thieno[3,4-d]pyrimidin-4-yl]-2,3-dihydro-1H-indol-6-yl]oxy]-N,N-dimethyl-acetamide], for which the IC50 is below 100 nM. In addition, the inhibition at 1 µM under setting [1] came to 100%.

Consider `CN(C)C(=O)COc1ccc2c(c1)N(c1nc(-c3cccc(C(F)(F)F)c3)nc3c1C[S+]([O-])C3)CC2` (stereo not shown) [2-101, N,N-Dimethyl-2-[[1-[6-oxo-2-[3-(trifluoromethyl)phenyl]-5,7-dihydro-thieno[3,4-d]pyrimidin-4-yl]-2,3-dihydro-1H-indol-6-yl]oxy]-acetamide], for which the concentration for half-maximal inhibition (IC50) is below 100 nM. Under setting [1], the inhibition at 1 µM was 120%.

`CN(C)C(=O)COc1ccc2c(c1)N(c1nc(-c3ccoc3)nc3c1C[S+]([O-])C3)CC2` (stereo not shown) [2-102, 2-[[1-[2-(Furan-3-yl)-6-oxo-5,7-dihydro-thieno[3,4-d]pyrimidin-4-yl]-2,3-dihydro-1H-indol-6-yl]oxy]-N,N-dimethyl-acetamide]: the IC50 was below 100 nM. Further, the inhibition at 1 µM under setting [1] was 110%.

Consider `CN(C)C(=O)COc1ccc2c(c1)N(c1nc(-c3ccccc3C#N)nc3c1C[S+]([O-])C3)CC2` (stereo not shown) [2-103, 2-[[1-[2-(2-Cyano-phenyl)-6-oxo-5,7-dihydro-thieno[3,4-d]pyrimidin-4-yl]-2,3-dihydro-1H-indol-6-yl]oxy]-N,N-dimethyl-acetamide], for which the IC50 lay within 100 to 1000 nM. The inhibition at 1 µM under setting [1] was found to be 91%.

As for `CN(C)C(=O)COc1ccc2c(c1)N(c1nc(-c3ccccc3NS(C)(=O)=O)nc3c1C[S+]([O-])C3)CC2` (stereo not shown) [2-104, 2-[[1-[2-[2-(Methanesulfonamido)-phenyl]-6-oxo-5,7-dihydro-thieno[3,4-d]pyrimidin-4-yl]-2,3-dihydro-1H-indol-6-yl]oxy]-N,N-dimethyl-acetamide], the IC50 is 100 to 1000 nM. The inhibition at 1 µM under setting [1] worked out at 85%.

As for `COc1ncccc1-c1nc2c(c(N3CCc4ccc(OCC(=O)N(C)C)cc43)n1)C[S+]([O-])C2` (stereo not shown) [2-105, 2-[[1-[2-(2-Methoxy-pyridin-3-yl)-6-oxo-5,7-dihydro-thieno[3,4-d]pyrimidin-4-yl]-2,3-dihydro-1H-indol-6-yl]oxy]-N,N-dimethyl-acetamide], the IC50 is 100 to 1000 nM. Besides, the inhibition at 1 µM under setting [1] worked out at 77%.

As for `CN(C)C(=O)COc1ccc2c(c1)N(c1nc(-c3ccc(S(C)(=O)=O)cc3)nc3c1C[S+]([O-])C3)CC2` (stereo not shown) [2-106, N,N-Dimethyl-2-[[1-[2-(4-methylsulfonyl-phenyl)-6-oxo-5,7-dihydro-thieno[3,4-d]pyrimidin-4-yl]-2,3-dihydro-1H-indol-6-yl]oxy]-acetamide], the IC50 is below 100 nM. Further, the inhibition at 1 µM under setting [1] is 104%.

Regarding `CN(C)C(=O)COc1ccc2c(c1)N(c1nc(-c3cccc(S(C)(=O)=O)c3)nc3c1C[S+]([O-])C3)CC2` (stereo not shown) [2-107, N,N-Dimethyl-2-[[1-[2-(3-methylsulfonyl-phenyl)-6-oxo-5,7-dihydro-thieno[3,4-d]pyrimidin-4-yl]-2,3-dihydro-1H-indol-6-yl]oxy]-acetamide], the IC50 is below 100 nM. Under setting [1], the inhibition at 1 µM amounted to 113%.

As for `CN(C)C(=O)COc1ccc2c(c1)N(c1nc(-c3cccc(C(N)=O)c3)nc3c1C[S+]([O-])C3)CC2` (stereo not shown) [2-108, 3-[4-[6-[(Dimethyl-carbamoyl)-methoxy]-2,3-dihydro-1H-indol-1-yl]-6-oxo-5,7-dihydro-thieno[3,4-d]pyrimidin-2-yl]-benzamide], the inhibition at 1 µM under setting [1] turned out to be 62%.

On to `CC(=O)Nc1ccc(-c2nc3c(c(N4CCc5ccc(OCC(=O)N(C)C)cc54)n2)C[S+]([O-])C3)cc1` (stereo not shown) [2-109, 2-[[1-[2-(4-Acetylamino-phenyl)-6-oxo-5,7-dihydro-thieno[3,4-d]pyrimidin-4-yl]-2,3-dihydro-1H-indol-6-yl]oxy]-N,N-dimethyl-acetamide], for which the half-maximal inhibitory concentration (IC50) was below 100 nM. In addition, the inhibition at 1 µM under setting [1] was found to be 98%.

Regarding `CCOc1ccc(-c2nc3c(c(N4CCc5ccc(OCC(=O)N(C)C)cc54)n2)C[S+]([O-])C3)cc1` (stereo not shown) [2-110, 2-[[1-[2-(4-Ethoxyphenyl)-6-oxo-5,7-dihydro-thieno[3,4-d]pyrimidin-4-yl]-2,3-dihydro-1H-indol-6-yl]oxy]-N,N-dimethyl-acetamide], the IC50 is below 100 nM. In addition, the inhibition at 1 µM under setting [1] amounted to 119%.

As to `COc1cc(-c2nc3c(c(N4CCc5ccc(OCC(=O)N(C)C)cc54)n2)C[S+]([O-])C3)ccc1Cl` (stereo not shown) [2-111, 2-[[1-[2-(4-Chloro-3-methoxy-phenyl)-6-oxo-5,7-dihydro-thieno[3,4-d]pyrimidin-4-yl]-2,3-dihydro-1H-indol-6-yl]oxy]-N,N-dimethyl-acetamide], the IC50 lay within 100 to 1000 nM. Moreover, the inhibition at 1 µM under setting [1] is 72%.

With `COc1cc(F)ccc1-c1nc2c(c(N3CCc4ccc(OCC(=O)N(C)C)cc43)n1)C[S+]([O-])C2` (stereo not shown) [2-112, 2-[[1-[2-(4-Fluoro-2-methoxy-phenyl)-6-oxo-5,7-dihydro-thieno[3,4-d]pyrimidin-4-yl]-2,3-dihydro-1H-indol-6-yl]oxy]-N,N-dimethyl-acetamide], the IC50 fell in the range of 100 to 1000 nM. The inhibition at 1 µM under setting [1] was 64%.

On to `CN(C)C(=O)COc1ccc2c(c1)N(c1nc(-c3cc(F)ccc3F)nc3c1C[S+]([O-])C3)CC2` (stereo not shown) [2-113, 2-[[1-[2-(2,5-Difluoro-phenyl)-6-oxo-5,7-dihydro-thieno[3,4-d]pyrimidin-4-yl]-2,3-dihydro-1H-indol-6-yl]oxy]-N,N-dimethyl-acetamide], for which the IC50 was below 100 nM. In addition, under setting [1], the inhibition at 1 µM was determined as 99%.

On to `CN(C)C(=O)COc1ccc2c(c1)N(c1nc(-c3ccnc(F)c3)nc3c1C[S+]([O-])C3)CC2` (stereo not shown) [2-138, 2-((1-(2-(2-Fluoropyridin-4-yl)-6-oxido-5,7-dihydrothieno[3,4-d]pyrimidin-4-yl)indolin-6-yl)oxy)-N,N-dimethylacetamide], for which the inhibition at 1 µM under setting [1] amounted to 102%. Moreover, for the setting “Percentage inhibition of PDE4B at 1 μM test concentration, 1 µM”, the “Inhibition at 1 μM test concentration [%]” value came to 101%.

Regarding `CN(C)C(=O)COc1ccc2c(c1)N(c1nc(-c3cncnc3)nc3c1C[S+]([O-])C3)CC2` (stereo not shown) [2-144, N,N-Dimethyl-2-[[1-(6-oxo-2-pyrimidin-5-yl-5,7-dihydro-thieno[3,4-d]pyrimidin-4-yl)-2,3-dihydro-1H-indol-6-yl]oxy]-acetamide], the IC50 lay in the range of 100 to 1000 nM. Besides, the inhibition at 1 µM under setting [1] was 92%.

Take `CN(C)C(=O)COc1ccc2c(c1)N(c1nc(-c3ccc4c(c3)OCO4)nc3c1C[S+]([O-])C3)CC2` (stereo not shown) [2-145, 2-[[1-[2-(1,3-Benzodioxo1-5-yl)-6-oxo-5,7-dihydro-thieno[3,4-d]pyrimidin-4-yl]-2,3-dihydro-1H-indol-6-yl]oxy]-N,N-dimethyl-acetamide]: the IC50 is below 100 nM. Also, the inhibition at 1 µM under setting [1] was determined as 95%.

For `CN(C)C(=O)COc1ccc2c(c1)N(c1nc(-c3cnc4ccccc4c3)nc3c1C[S+]([O-])C3)CC2` (stereo not shown) [2-146, N,N-Dimethyl-2-[[1-(6-oxo-2-quinolin-3-yl-5,7-dihydro-thieno[3,4-d]pyrimidin-4-yl)-2,3-dihydro-1H-indol-6-yl]oxy]-acetamide], the concentration for half-maximal inhibition (IC50) was below 100 nM. In addition, under setting [1], the inhibition at 1 µM is 104%.

As to `CN(C)C(=O)COc1ccc2c(c1)N(c1nc(-c3ccc4cc[nH]c4c3)nc3c1C[S+]([O-])C3)CC2` (stereo not shown) [2-147, 2-[[1-[2-(1H-Indol-6-yl)-6-oxo-5,7-dihydro-thieno[3,4-d]pyrimidin-4-yl]-2,3-dihydro-1H-indol-6-yl]oxy]-N,N-dimethyl-acetamide], the IC50 is below 100 nM. Moreover, under setting [1], the inhibition at 1 µM worked out at 86%.

Take `CN(C)C(=O)COc1ccc2c(c1)N(c1nc(-c3ccc4cnccc4c3)nc3c1C[S+]([O-])C3)CC2` (stereo not shown) [2-148, 2-[[1-(2-Isoquinolin-6-yl-6-oxo-5,7-dihydro-thieno[3,4-d]pyrimidin-4-yl)-2,-dihydro-1H-indol-6-yl]oxy]-N,N-dimethyl-acetamide]: the IC50 was below 100 nM. Also, the inhibition at 1 µM under setting [1] is 100%.

For `CN(C)C(=O)COc1ccc2c(c1)N(c1nc(-c3ccc4cccnc4c3)nc3c1C[S+]([O-])C3)CC2` (stereo not shown) [2-149, N,N-Dimethyl-2-[[1-(6-oxo-2-quinolin-7-yl-5,7-dihydro-thieno[3,4-d]pyrimidin-4-yl)-2,3-dihydro-1H-indol-6-yl]oxy]-acetamide], the concentration for half-maximal inhibition (IC50) is below 100 nM. Also, the inhibition at 1 µM under setting [1] stood at 92%.
